Laboratory results reported in a melting point compilation (Tetko et al.; mined from patent text by program, amines drawn as free bases though some values may be those of a salt).

| SMILES | melting point |
| --- | --- |
| Cc1c(Br)sc(N2C(=O)c3ccccc3C2=O)c1C(=O)c1ccc(Cl)cc1 | 194 to 195 °C |
| Cc1cc2nc(C)c(S(=O)Cc3ccccc3N(C)C)nc2cc1C (configuration not stated) | 83 to 88 °C |
| CCCC1c2c(ccc(C(C)=O)c2O)OC1CSc1ccc(C(=O)CCC(=O)O)cc1 (configuration not stated) | 110 to 112 °C |
| Cc1ccc(C(=O)Nc2ccc(N3CCN(C(=O)OC(C)(C)C)CC3)cc2)c(-c2ccc(C(C)C)cc2)c1 | 173 to 175 °C |
| CN(N)C(=S)Nc1ccc(C#N)cc1 | 178 to 179 °C |
| N#Cc1c[nH]c(-c2ccccc2)c1 | 150 to 151 °C |
| COC(=O)C1C(C)OC(=O)C(C)C1NC(=O)OCc1ccccc1 (configuration not stated) | 144 to 146 °C |
| COc1cc(NC(C)=O)c(Cl)cc1C(=O)NC1CC2CCCCN2C1 (configuration not stated) | 151 to 153 °C |
| CN1CCC(c2c[nH]c3ccc(OS(=O)(=O)c4ccc(I)cc4)cc23)CC1 | 174 to 176 °C |
| O=C1Nc2cccnc2N(C(=O)N2CCCC(CCCN3CCCCC3)C2)c2ccccc21 (configuration not stated) | 123 to 125 °C |
| CCCCC1(C2CCCC2)Cc2cc(OCCCC(=O)O)c(Cl)c(Cl)c2C1=O (configuration not stated) | 139 to 140 °C |
| COC1=CC2=CCC3C4CC(C)C(=O)C4(C)CCC3C2(C)CC1 (configuration not stated) | 149 to 167 °C |
| COCCOc1cc2ncnc(NC3=CC(=O)C(Br)=CC3=O)c2cc1OC | 200 to 210 °C |
| O=S(=O)(c1ccc(O)cc1)N1c2ccccc2-c2ccccc2C1c1ccccc1 (configuration not stated) | 210 to 212 °C |
| O=Cc1cc(Cl)ccc1OC/C=C/CCl | 62 to 63 °C |
| COc1cc2c(cc1OC)C(C=Cc1ccc(Cl)c(Cl)c1)=NNC(C)C2 (configuration not stated) | 132 to 133 °C |
| COc1ccc2[nH]c(CCCCCCCCCCCCCCO)cc2c1 | 68 to 69 °C |
| Brc1ccc2c(c1)C(c1ccccn1)=NCc1nnc(Br)n1-2 | 236 to 238 °C |
| COC(=O)[C@H](NC(=O)OC(C)(C)C)c1ccc(O)cc1 | 140 to 142 °C |
| COCOc1ccccc1-c1cc(-c2ccc(OC)c(C(=O)O)c2)c(C#N)c(NC(=O)c2cccs2)n1 | 187 to 189 °C |
| COC(=O)c1c([N+](=O)[O-])cccc1S(N)(=O)=O | 227 to 229 °C |
| C[C@@H](Nc1c(Nc2cccnc2)c(=O)c1=O)C(C)(C)C | 283 to 285 °C |
| CCOCc1nc2c(N)nc3cc(OCc4cccc(OC)c4)ccc3c2n1CC(C)(C)NS(C)(=O)=O | 221 to 222 °C |

| SMILES | melting point |
| --- | --- |
| CCCCCCCCCCCCc1cc(N)no1 | 79.5 to 81 °C |
| Cc1cc(NC(=O)C2=C(O)CN(C)S(=O)(=O)N2C)no1 | 189 to 192 °C |
| CCS(=O)(=O)Nc1ccc(F)c(N)c1 | 106 to 108 °C |
| CCOC(=O)CC[C@H](NC(=O)c1ccc(N2CCN(c3c(N)nc(N)nc3CC)CC2)cc1)C(=O)OCC | 226 to 228 °C |
| O=C(O)c1cccc(N(C(c2ccccc2)c2ccccc2)n2cc(C3c4ccccc4C=Cc4ccccc43)c(=S)[nH]c2=O)c1 | 210 °C |
| O=C(O)CCC(=O)c1ccc(-c2ccc(Br)cc2)cc1 | 198 to 200 °C |
| COc1c(NS(=O)(=O)c2ccccc2)cccc1C(=O)Nc1ccccc1 | 190 to 194 °C |
| COc1ccc2c(c1OCc1ccc(C(=O)O)cc1)CC(C(=O)O)N(C(=O)C(c1ccccc1)c1ccccc1)C2 (racemic) | 190 to 192 °C |
| COC(=O)c1ccc(-n2cc(-c3ccc4c(c3)C(C)(C)CCC4(C)C)cn2)cc1 | 229 to 232 °C |
| CC(c1cc(F)ccc1Oc1nc2ccc(-n3cc(-c4ccccc4)nn3)cc2cc1Cc1ccccc1)n1ccnc1 (configuration not stated) | 118 to 120 °C |
| COCC=C(NC(C)=O)C(=O)OC | 61 to 63 °C |
| CC(C)(C)C(O)(Cn1cncn1)C(Cl)=CCl (configuration not stated) | 49 to 52 °C |
| COc1cc(OC)nc(Oc2ccnc3cc(Cl)ccc23)n1 | 119 to 120 °C |
| CNc1c(OC)cc(C(=O)OC)cc1OC | 49 to 51 °C |
| CCOC(=O)[C@@H](CCC(=O)N1c2ccccc2C[C@H]1C(=O)OCC)NC(=O)[C@@H](N)CCCCNSc1ncccc1[N+](=O)[O-] | 95 to 102 °C |
| CC(C)c1cccc(C(C)C)c1OC(=O)NP(=O)(Oc1ccccc1)Oc1ccccc1 | 132 to 135 °C |
| COc1cc2c3ccc(OC)c(OC)c3n(C(=O)CCc3ccccc3)c2cc1OC | 106 to 108 °C |
| CCCc1c(OCCCCCC(=O)c2cc(OC)c(OC)cc2F)ccc(C(=O)O)c1O | 146 to 147 °C |
| COc1ccc(NCC(O)CO)cc1 (configuration not stated) | 151 to 153 °C |
| CC12CC(N3CCC4(CC3)OCCO4)C(O)CC1CCC1C2CCC2(C)C(O)C(N3CCCCC3)CC12 (configuration not stated) | 216 to 218 °C |
| O=C(O)C1CCN(c2ncc(NS(=O)(=O)c3ccc(Br)cc3)c(NCc3ccccc3)n2)CC1 | 136 to 138 °C |
| COc1ccnc(CCc2nc3cc(-c4ccc(S(=O)(=O)N5CCC(C(=O)c6ccccc6)CC5)cc4)cnc3[nH]2)c1 | 174 to 175 °C |
| O=CC(=Cc1ccc(OC(=O)c2ccccc2F)cc1)C(C=O)=Cc1ccc(OC(=O)c2ccccc2F)cc1 | 197 to 199 °C |

The next lines start with the values.

| melting point | SMILES |
| --- | --- |
| 210 °C | CCOC(=O)c1nccn1C1C(=O)c2ccccc2N1C(C)=O (configuration not stated) |
| 85 to 86 °C | CC1(C)Oc2ccc(C#N)cc2[C@H](N)[C@@H]1O (relative stereo) |
| 221 to 222 °C | CC(C)Cn1c(C#N)c(-c2ccccc2)c2cccnc2c1=O |
| 232 to 235 °C | NC1=NN(c2nc3ccccc3s2)CC1 |
| 173 °C | Cn1ccnc1COc1nn2c(-c3ccccc3F)nnc2cc1C1CCC1 |
| 165 to 166 °C | Cc1c(-c2ccccc2)c(N2CC[C@H](N(C)C)C2)c2oc(/C=C/c3ccccc3)nc2c1C#N |
| 167 to 172 °C | CSc1ccc2c3c(cccc13)C(=O)N2 |
| 145 °C | C=CCN1CCC(Nc2nc3cncnc3n2Cc2ccc(F)cc2)CC1 |
| 68 to 69 °C | FC(F)=C(F)CCSc1nnc(-c2ccc(Cl)cc2)s1 |
| 115 to 116 °C | O=S(=O)(Nc1cccc(CCOCc2csc(-c3ccc(OC(F)(F)F)cc3)n2)c1)C(F)(F)F |
| 257 °C | Cn1c([N+](=O)[O-])cnc1C=Cc1nnc(-c2ccccc2)s1 |
| 160 to 162 °C | Cc1nc(CCCCCn2cnc3c2c(=O)n(C)c(=O)n3C)no1 |
| 114 to 117 °C | CCC(CC)c1ccc(Cl)c2nc3n(c12)CCCCN3c1ccc(OC(F)(F)F)cc1Br |
| 38 to 39 °C | C=CCOc1cccc2nc(C)sc12 |
| 177 °C | Cc1ccccc1-n1cc(-c2ccccc2)c(CC(=O)O)n1 |
| 94 to 95 °C | N#Cc1ccc(OCC(O)CN2CCSCC2)cc1 (configuration not stated) |
| 219 to 222 °C | Nc1cc(Oc2ccc3c(C(=O)Nc4ccc(F)c(C(F)(F)F)c4)nccc3c2)ncn1 |
| 111 °C | CCOC(=O)c1ccc(OCCC2CN(c3ccc(SC)nn3)CCO2)cc1 (configuration not stated) |
| 259 to 260 °C | O=C(Nc1ccc(C(F)(F)F)cc1)N1CC(NC(=O)C(F)(F)F)C(c2ccc(Cl)cc2)=N1 (configuration not stated) |
| > 300 °C | O=C(O)c1nc2cc(N3CCCCC3)c([N+](=O)[O-])cc2[nH]c1=O |
| 170 to 171 °C | CCCCCCc1nc2c(N)nc3ccccc3c2n1CCCCNS(C)(=O)=O |
| 240 to 242 °C | CC(=O)c1cc2c(s1)CCc1cc(=O)n(-c3ccc(C)cc3)nc1-2 |
| 201 to 207 °C | O=C(O)C1=C(c2cccs2)c2cc(Cl)ccc2OC1C(F)(F)F (configuration not stated) |
| 183 to 184 °C | O=C(Nc1cc(Cl)ccc1O)Nc1ccccc1C(F)(F)F |
| 258 to 262 °C | N#Cc1ccc(N2CCN(c3ccc(O)cc3)CC2)cc1 |
| 127 °C | O=C(c1ccccc1)N1CCc2cc(S(=O)(=O)N3CC(c4ccccc4)NC3=O)ccc21 (configuration not stated) |

| melting point | SMILES |
| --- | --- |
| 163 to 164 °C | FC(F)(F)COc1ccc(-c2nc3n(c2-c2ccc(OCC(F)(F)F)cc2)CCS3)cc1 |
| 156 to 158 °C | CNc1c(S(=O)(=O)C(F)(F)F)c(-c2ncon2)nn1-c1c(Cl)cc(C(F)(F)F)cc1Cl |
| 180 to 182 °C | Cc1nc(-n2ccccc2=O)sc1C(=O)NCc1ccccc1 |
| 245 to 247 °C | COc1ccc(CC(=O)N[C@H]2C[C@H](C(=O)O)Nc3cc(Cl)cc(Cl)c32)cc1 (relative stereo) |
| 158 to 159 °C | Cc1nc(Cc2ccccc2)c(CO)c(CO)c1O |
| 108 °C | Cc1cc(C(=O)N2Cc3cccn3Cc3ccccc32)ccc1C1=CCCc2ccccc21 |
| 182 to 183 °C | CC(F)(F)c1cccc(C[C@@H](NC(=O)c2ccc(F)c3ccccc23)[C@@H](O)c2ccc(F)cc2)c1 (racemic) |
| 60 °C | CCCCCc1ccc(CCc2ccc(-c3ccc(OC(F)(F)F)cc3)cc2)cc1 |
| 248 to 250 °C | O=C(O)c1ccc2c(c1)S(=O)(=O)c1ccccc1CC2 |
| 115 to 120 °C | COc1c2c(c(OC)c(OC)c1OC)CCC(CCOc1ccc(-c3ccccc3)cc1)CC2 |
| 104 to 106 °C | Nc1nc(CCc2ccccc2)cc(C2CCN(C(=O)c3ccccc3)CC2)n1 |
| 151 to 153 °C | OCc1c(C(F)(F)F)nn2ccc3c(c12)CCO3 |
| 169 to 170 °C | NC(=O)N1CC(Oc2cccc(F)c2)C1 |
| 154 to 155 °C | CC(C)(C)c1cc(I)c2c(c1)CNS(=O)(=O)O2 |
| 167 to 169 °C | O=C1CNC(c2cc(Br)cc(-c3ccsc3)c2)=NN1CC(F)(F)F |
| 161 to 162 °C | Cn1c(C(=O)NC(CF)Cc2ccccc2)cc2c(O)cccc21 (configuration not stated) |
| > 300 °C | CC12CCc3cc(C#N)ccc3C1=NNC(=O)C2 (configuration not stated) |
| 213 to 215 °C | COc1ccc2cc3c(=O)n(C)cc(C(=O)NCCN(C)C)c3nc2c1 |
| 174 to 176 °C | O=C1Nc2ccccc2N(C(=O)N2CCCC(CCCN3CCCC3)C2)c2ncccc21 (configuration not stated) |
| 182 to 185 °C | CCOC(=O)C(C#N)=C1CCN(c2ccc(N3C[C@H](CNC(C)=S)OC3=O)cc2F)CC1 |
| 98 to 100 °C | CC(=O)N1CCC(CCCCC(=O)c2ccc(F)cc2)CC1 |
| 83 to 86 °C | CCOCn1c(C(F)(F)F)c(C#N)c2ccc(Cl)cc21 |
| 210 to 212 °C | COc1ccc(-c2cc(N3CCCCC3)c(C#N)c3c2-c2ccccc2C3=O)cc1 |
| 60 to 63 °C | CCCc1c(SC(=O)N(C)C)ccc(C(C)=O)c1OCCCC(=O)OCC |
| 175 to 178 °C | O=C(CCl)Nc1ccc2[nH]ncc2c1 |
